From US20240024313A1, “BIARYL ETHER UREA COMPOUNDS” (Jazz Pharmaceuticals Ireland Limited, priority 2022, published 2024)

What was measured:
Human FAAH = target: T1, Human FAAH (Homo sapiens, UniProt O00519); test: Fluorometric-based Human FAAH Inhibition Assay; assay type: biochemical; details: recombinant human FAAH 125 nM, 1 hour preincubation, AMC Arachidonoyl Amide substrate
T1 construct: Recombinant human FAAH encoding full length amino acids were expressed in insect cells; made in house; host or cells: insect cells (baculovirus infection)
T1 sequence (O00519 1-579): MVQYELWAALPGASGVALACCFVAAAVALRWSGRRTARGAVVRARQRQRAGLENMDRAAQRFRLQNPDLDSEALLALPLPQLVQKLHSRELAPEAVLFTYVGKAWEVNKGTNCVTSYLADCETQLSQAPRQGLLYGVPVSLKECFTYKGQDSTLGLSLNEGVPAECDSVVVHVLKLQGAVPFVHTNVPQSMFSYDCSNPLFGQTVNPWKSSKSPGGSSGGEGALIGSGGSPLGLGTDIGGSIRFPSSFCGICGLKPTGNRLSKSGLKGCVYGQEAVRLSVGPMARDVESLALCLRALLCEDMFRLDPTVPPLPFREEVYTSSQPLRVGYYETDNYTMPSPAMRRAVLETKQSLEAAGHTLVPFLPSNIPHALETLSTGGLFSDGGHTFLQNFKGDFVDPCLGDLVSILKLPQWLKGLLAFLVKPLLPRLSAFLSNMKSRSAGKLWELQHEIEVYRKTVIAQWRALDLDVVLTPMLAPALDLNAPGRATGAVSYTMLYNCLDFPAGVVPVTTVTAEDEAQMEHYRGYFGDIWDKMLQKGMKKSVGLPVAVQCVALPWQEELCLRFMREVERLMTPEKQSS
Description: Human FAAH protein was prepared using the following method: Recombinant human FAAH encoding full length amino acids were expressed in insect cells using baculovirus infection as C-terminal (non-cleavable) 8×His tag fusion protein. Protein was supplied as cell lysate: resuspended 100,000×g pellet at 5.12 mg/ml a buffer containing 20 mM HEPES, pH 7.8, 150 mM NaCl, 1 mM EDTA, 1 mM DTT, 0.5% CHAPS. Specific activity was determined to be 844 U/mg.
Fluorometric-based Human FAAH Inhibition Assay was performed using the following method:
(§1) Assays were performed in standard-volume, black, non-binding 384-well plates (Corning #3654). All additions were carried out using the Agilent Bravo Automated Liquid Handler using an 384ST pipetting head.
(§2) FAAH reactions contained 125 nM Fatty Acid Amide Hydrolase (human, recombinant) diluted in an assay buffer containing Tris-EDTA, pH 9.0 at ambient temperature. To obtain 125 nM FAAH per well, a working stock was made at 312.5 nM by diluting 94 μL of 79.63 μM enzyme to 24 mL of assay buffer, then adding 20 μL to each well. Using the mother plates (prepared at 1000× in DMSO), the Agilent Bravo performed a 1:100 dilution step in assay buffer prior to adding 5 μL to each well for an additional 1:10 dilution.
Plates were incubated at room-temperature for 1 hour.
(§3) To initialize the reaction, a final concentration of 204 of AMC Arachidonoyl Amide was added to each well. To obtain this concentration, a working stock was made at 404 by adding 960 μL of 0.1 mM AMC stock to 24 mL of assay buffer, then 25 μL was added to each well. This stock was made at 4% DMSO for a final assay concentration contribution of 2% DMSO.
(§4) The total reaction volume per well was 50 μL. The reactions were allowed to proceed at 37° C. for 30 minutes with fluorescence monitored using a Cytation 5 Multimode imaging plate reader (BioTek Instruments) using excitation and emission wavelengths of 350/10 nm and 455/10 nm, respectively. Rates (RFU/min) were calculated from the linear portion of the reaction curves using a linear least squares curve fitting method using Gen5 v3.10. Calculated rates were then normalized to DMSO control and presented as percentages. Data were graphed and statistics were performed using GraphPad Prism v9.0.1.
Data for the Fluorometric-based Human FAAH Inhibition Assay are recited in Table 2 and in FIG. 1.

Rat FAAH = target: T2, Rat FAAH (Rattus norvegicus, UniProt P97612); test: Fluorometric-based Rat FAAH Inhibition Assay; assay type: biochemical; details: recombinant rat FAAH 20 nM, 1 hour preincubation, 2 μM AMC Arachidonoyl Amide substrate
T2 construct: truncated rat FAAH encoding amino acids residues 30-579; 6xHis (N); TEV cleavage site (N); made in house; host or cells: E. coli (pLysS cells)
T2 sequence (P97612 30-579): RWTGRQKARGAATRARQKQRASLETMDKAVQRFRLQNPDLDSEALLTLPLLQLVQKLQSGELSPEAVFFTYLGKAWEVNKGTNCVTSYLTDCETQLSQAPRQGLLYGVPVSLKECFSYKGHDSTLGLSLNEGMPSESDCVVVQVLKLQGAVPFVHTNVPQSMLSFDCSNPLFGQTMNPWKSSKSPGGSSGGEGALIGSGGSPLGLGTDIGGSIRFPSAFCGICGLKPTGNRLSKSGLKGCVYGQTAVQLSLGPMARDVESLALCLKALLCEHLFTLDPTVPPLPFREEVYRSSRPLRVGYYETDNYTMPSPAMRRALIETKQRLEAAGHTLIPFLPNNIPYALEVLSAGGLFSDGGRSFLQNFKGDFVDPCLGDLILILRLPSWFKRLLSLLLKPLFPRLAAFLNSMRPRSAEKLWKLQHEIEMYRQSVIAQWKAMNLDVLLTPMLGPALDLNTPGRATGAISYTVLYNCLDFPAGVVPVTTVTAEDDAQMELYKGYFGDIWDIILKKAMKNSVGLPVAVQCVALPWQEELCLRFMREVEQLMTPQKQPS
Description: Rat FAAH protein was prepared using the following method: Recombinant truncated rat FAAH encoding amino acids residues 30-579 were expressed in E. coli as NH2-terminal 6×HIS-tag and a TEV-cleavage site fusion protein. 6 L pLysS cells were induced to express FAAH. Cells were lysed and centrifuged. The insoluble pellet was resuspended using a Dounce homogenizer in CHAPS-containing buffer and allowed to stir at 4° C. for 1 hour. The resuspended pellet was then centrifuged and rat FAAH in the clarified supernatant was purified by IMAC. The purest protein fractions were pooled, and buffer exchanged into storage buffer by dialysis. The protein concentration was determined by Bradford assay aliquots were flash frozen in liquid nitrogen.
Fluorometric-based Rat FAAH Inhibition Assay was performed using the following method:
as §1
as §2, with “20” for “125”, “(rat,” for “(human,”, “50” for “312.5”, “150” for “94”, “7.93” for “79.63”
Plates were incubated at room temperature for 1 hour.
as §3, with “reaction” for “reaction,”, “2 μM” for “204”, “concentration” for “concentration,”, “4 μM” for “404”
as §4
Data for the Fluorometric-based Rat FAAH Inhibition Assay are recited in Table 2 and in FIG. 2.

[1] = Phase 1 crossover pharmacokinetic study of Compound of Formula (II) formulations in healthy adult participants; details: human, in vivo, oral, preliminary data; for AUC(0-t) / Cmax: 4 mg
Description: Partial preliminary data on Compound of Formula (II), Compound B, and Compound C) were obtained from a phase 1, single-center, open-label, randomized, 3-period, 2-sequence crossover study to characterize the PK, safety, and tolerability of Compound of Formula (II) formulations (capsule vs tablet) in healthy adult participants. In Periods 1 and 2, participants were randomized to receive 4 mg Compound of Formula (II) capsule formulation or 4 mg Compound of Formula (II) tablet formulation.
Pharmacokinetic parameters for compound of Formula (II), Compound B, and Compound C following single dose of 4 mg of compound of Formula (II) are provided in Table 3. Pharmacokinetic parameters for compound of Formula (II), Compound B, and Compound C following multiple doses of 4 mg of compound of Formula (II) are provided in Table 4.

[2] = following multiple doses of 4 mg of compound of Formula (II)
[3] = following single dose of 4 mg of compound of Formula (II)

| Structure (SMILES) | IC50 (Human FAAH) [nM] | IC50 (Rat FAAH) [nM] | AUC(0-t) [1, 2] [ng·h/mL] | Cmax [1, 2] [ng/mL] | AUC(0-t) [1, 3] [ng·h/mL] | Cmax [1, 3] [ng/mL] | AUC [1, 2] [ng·h/mL] | Tmax [1, 2] [h] | half-life [1, 2] [h] |
| --- | --- | --- | --- | --- | --- | --- | --- | --- | --- |
| O=C(Nc1cccnn1)N1CC/C(=C\c2cccc(Oc3ccc(C(F)(F)F)cn3)c2)[C@@H](O)C1 [Compound A-RE, (R,E)-3-hydroxy-N-(pyridazin-3-yl)-4-(3-((5-(trifluoromethyl)pyridin-2-yl)oxy)benzylidene)piperidine-1-carboxamide] | 9.01 ± 0.68 | 56.8 ± 16.6 |  |  |  |  |  |  |  |
| O=C(Nc1cccnn1)N1CC/C(=C/c2cccc(Oc3ccc(C(F)(F)F)cn3)c2)[C@@H](O)C1 [Compound A-RZ, (R,Z)-3-hydroxy-N-(pyridazin-3-yl)-4-(3-((5-(trifluoromethyl)pyridin-2-yl)oxy)benzylidene)piperidine-1-carboxamide] | 39.3 ± 2.89 | 170 ± 43 |  |  |  |  |  |  |  |
| O=C(Nc1cccnn1)N1CC/C(=C\c2cccc(Oc3ccc(C(F)(F)F)cn3)c2)[C@H](O)C1 [Compound A-SE, (S,E)-3-hydroxy-N-(pyridazin-3-yl)-4-(3-((5-(trifluoromethyl)pyridin-2-yl)oxy)benzylidene)piperidine-1-carboxamide] | 439 ± 14.7 | 3720 ± 542 |  |  |  |  |  |  |  |
| O=C(Nc1cccnn1)N1CC/C(=C/c2cccc(Oc3ccc(C(F)(F)F)cn3)c2)[C@H](O)C1 [Compound A-SZ, (S,Z)-3-hydroxy-N-(pyridazin-3-yl)-4-(3-((5-(trifluoromethyl)pyridin-2-yl)oxy)benzylidene)piperidine-1-carboxamide] | 300 ± 54.9 | 3290 ± 583 |  |  |  |  |  |  |  |
| O=C1CCC(NC(=O)N2CCC(=Cc3cccc(Oc4ccc(C(F)(F)F)cn4)c3)CC2)=NN1 [Compound B, N-(6-oxo-1,4,5,6-tetrahydropyridazin-3-yl)-4-(3-((5-(trifluoromethyl)pyridin-2-yl)oxy)benzylidene)piperidine-1-carboxamide] | 12.4 ± 0.89 | 85.2 ± 9.33 | 906 | 9.3 | 0.6 | 0.3 | 208 | 24 | 85 |
| O=C(O)CCC(=O)NC(=O)N1CCC(=Cc2cccc(Oc3ccc(C(F)(F)F)cn3)c2)CC1 [Compound C, 4-oxo-4-(4-(3-((5-(trifluoromethyl)pyridin-2-yl)oxy)benzylidene)piperidine-1-carboxamido)butanoic acid] | 758 ± 11.2 | 39.6 ± 5.84 | 281 | 3.9 | 1.1 | 0.4 | 86 | 8 | 40.4 |
| O=C(Nc1cccnn1)N1CCC(O)(C(O)c2cccc(Oc3ccc(C(F)(F)F)cn3)c2)CC1 (centres unmarked) [Compound D, 4-hydroxy-4-(hydroxy(3-((5-(trifluoromethyl)pyridin-2-yl)oxy)phenyl)methyl)-N-(pyridazin-3-yl)piperidine-1-carboxamide] | 555 ± 84.4 | 3480 ± 654 |  |  |  |  |  |  |  |
| FC(F)(F)c1ccc(Oc2cccc(C=C3CCNCC3)c2)nc1 [Compound E, 2-(3-(piperidin-4-ylidenemethyl)phenoxy)-5-(trifluoromethyl)pyridine] | 34400 ± 24100 |  |  |  |  |  |  |  |  |
| O=C(Nc1cccnn1)N1CCC(=Cc2cccc(Oc3ccc(C(F)(F)F)cn3)c2)CC1 [Compound of Formula (II), reference compound] | 3.56 ± 0.67 | 10.2 ± 1.17 | 1340 | 46.6 | 138 | 31.3 | 625 | 2 | 32.2 |
